Test results from US20230167121A1, “SUBSTITUTED {1,2,4,} TRIAZOLO{1,5-A} PYRIMIDINE COMPOUNDS AND USE IN STABILIZING MICROTUBULES” (THE TRUSTEES OF THE UNIVERSITY OF PENNSYLVANIA, priority 2020, published 2023).
Values joined by “and” are separate entries in the source; they are usually repeats but may differ in a detail not shown here. Equal values may be shown once. Where a name gives a salt, the structure may show the parent alone. Read-outs that look alike come from different tables or passages of the source.

Experiments:
acetylated α-tubulin = experiment: cell-based assay of MT-stabilization: acetylated α-tubulin in QBI293 cell lysates by ELISA; details: for fold induction at 1 µM: QBI293
Experimental: (§1) All test compounds were evaluated in a previously described cell-based assay of MT-stabilization (see Kovalevich, J., et al. (2016) Characterization of Brain-Penetrant Pyrimidine-Containing Molecules with Differential Microtubule-Stabilizing Activities Developed as Potential Therapeutic Agents for Alzheimer's Disease and Related Tauopathies. J Pharmacol Exp Ther 357, 432-450, incorporated herein by reference), in which compound-dependent changes in tubulin polymerization and total tubulin levels were determined after 4 h of incubation of QBI293 cells with 1 and 10 μM compound via quantification of acetylated α-tubulin and total tubulin in cell lysates by ELISA.
(§2) Novel C6 nitrile- and alkyne-substituted triazolopyrimidine examples that have improved in vitro activity relative to previously described examples, with the general structure depicted in Formula I. The activity of the novel C6-nitrile substituted compounds were tested in a previously described cellular assay of MT-stabilization (Kovalevich, J., et al. (2016)). As summarized in Table 2. below, eighteen examples were synthesized and tested. In all cases, these compounds were confirmed to be active Class I triazolopyrimidines. […] Table 2 provides fold-changes in acetylated α-tubulin and total α-tubulin levels in QB1293 cells after 4 h incubation with test compounds at either 1 or 10 μM. Data are expressed as the fold-change relative to vehicle-treated cells. *p<0.05 and **p<0.01 by one-way ANOVA.
(§3) Compounds produced according to the preceding synthetic schemes were for microtubule stabilization. Fold-changes in acetylated α-tubulin (AcTub) and α-tubulin (α-Tub) levels in QB1293 cells after 4 h incubation with test compounds at either 1 or 10 μM. Reported values for AcTub and α-Tub represent the fold-change over control (DMSO)-treated cells (*p<0.05 and **p<0.01 by one-way ANOVA); numbers in parentheses represent the fold-change of AcTub over positive control-treated cells (i.e., 100 nM of cevipabulin). Changes of +/−15% of control are deemed to be within the day-to-day assay variability and non-significant.

total α-tubulin = experiment: cell-based assay of MT-stabilization: total α-tubulin in QBI293 cell lysates by ELISA; details: QB1293 cells
Experimental: as §1, §2, §3

[1] = Plasma and brain compound determinations (LC-MS/MS); type: in vivo; details: CD1 mice, 2.5 mg/kg each, one hour after dosing; for concentration at 1 h / Kp at 1 h: CD1, mouse, 2.5 mg/kg; for concentration at 1 h / Brain Concentration / Plasma Concentration: dosed concurrently
Experimental: CD1 mice (n=3) were dosed concurrently with CNDR-51990 and CNDR-51993 (representing a 1:1 mixture of two diastereoisomers, 52017 (67) and 52016 (68)) at 2.5 mg/kg each). One hour after dosing, mice were euthanized and blood collected, followed by perfusion with saline. Mouse brains were homogenized in 10 mM ammonium acetate, pH 5.7 (1:2; w/v) using a handheld sonic homogenizer. Mouse plasma was obtained from blood that was collected into a 1.5 ml tube containing 0.5M EDTA solution and which was centrifuged for 10 minutes at 4500 g at 4° C. Aliquots (50 μl) of brain homogenates or plasma were mixed with 0.2 ml of acetonitrile, centrifuged at 15,000×g, and the resulting supernatant was used for subsequent LC-MS/MS analysis. The LC-MS/MS analysis was conducted by Inotiv, Inc., utilizing methods essentially as previously described (Lou et al., J. Med. Chem. 57:6116-27, 2014).

MTs = details: versus vincristine, taxol, colchicine; cited from earlier work
B/P of Table 4 = details: in vivo
[2] = brain, individual animals 1-3, read-out: Brain Concentration
[3] = brain, mean, n=3, read-out: Brain Concentration, Mean
[4] = brain, individual animals 1-3, read-out: Brain/Plasma
[5] = brain, mean, n=3, read-out: Brain/Plasma, Mean
[6] = plasma, individual animals 1-3, read-out: Plasma Concentration
[7] = plasma, mean, n=3, read-out: Plasma Concentration, Mean
[8] = QB1293 cells, 4 h incubation, 1 μM compound, relative to vehicle-treated cells, *p<0.05, **p<0.01, read-out: AcTub l μM (fold-change in acetylated α-tubulin)
[9] = QBI293, 4 h, 4 h incubation, 1 μM compound, relative to vehicle-treated cells, read-out: α-Tub 1 μM (fold-change in total α-tubulin)
[10] = QBI293, 4 h, 4 h incubation, 10 μM compound, relative to vehicle-treated cells, read-out: α-Tub 10 μM (fold-change in total α-tubulin)
[11] = individual animals 1-3, listed as 51990 (70)
[12] = Table 4, QB1293 cells, 4 h, 1 μM, *p<0.05, **p<0.01, read-out: AcTub 1 μM (fold-change over control (DMSO)-treated cells)
[13] = QBI293, 4 h, Table 4, 4 h, 1 μM, read-out: α-Tub l μM (fold-change over control (DMSO)-treated cells)
[14] = QBI293, 4 h, Table 4, 4 h, 10 μM, read-out: α-Tub 10 μM (fold-change over control (DMSO)-treated cells)

## 4-(5-chloro-7-(piperidin-1-yl)-[1,2,4]triazolo[1,5-a]pyrimidin-6-yl)-3,5-difluorobenzonitrile [Compound 74]
Acetylated α-tubulin; Table 2, triazolopyrimidine MT-activity class
  Class: 1
Total α-tubulin; 4 h incubation, 1 μM compound, relative to vehicle-treated cells
  α-Tub 1 μM (fold-change in total α-tubulin): 0.98 +/− 0.02 fold-change
Total α-tubulin; 4 h incubation, 10 μM compound, relative to vehicle-treated cells
  α-Tub 10 μM (fold-change in total α-tubulin): 0.95 +/− 0.03 fold-change

## CC(C)[C@@H](C)Nc1c(-c2ccc(C#N)cc2F)c(Cl)nc2ncnn12 [CNDR-51993, (R)-4-(5-chloro-7-((3-methylbutan-2-yl)amino)-[1,2,4]triazolo[1,5-a]pyrimidin-6-yl)-3-fluorobenzonitrile]
[1]; [2]
  concentration at 1 h: 209 ng/g
[1]; [3]
  concentration at 1 h: 225 ng/g
[1]; [4]
  Kp at 1 h: 0.86
[1]; [5]
  Kp at 1 h: 1.09
[1]; [6]
  concentration at 1 h: 242 ng/mL
[1]; [7]
  concentration at 1 h: 206 ng/mL
[1]; individual animals 1-3
  Brain Concentration: 211 ng/g and 254 ng/g
  Plasma Concentration: 186 ng/mL and 190 ng/mL
  Brain/Plasma: 1.13 and 1.34

## CNCCCOc1cc(F)c(-c2c(Cl)nc3ncnn3c2N[C@@H](C)C(F)(F)F)c(F)c1 [Cevipabulin]
MTs
  competition for binding to MTs: competes with vincristine but not taxol or colchicine

## CC(C)[C@@H](Nc1c(-c2c(F)cc(C#N)cc2F)c(Cl)nc2ncnn12)C(F)(F)F [Compound 62, (R)-4-(5-chloro-7-((1,1,1-trifluoro-3-methylbutan-2-yl)amino)-[1,2,4]triazolo[1,5-a]pyrimidin-6-yl)-3,5-difluorobenzonitrile]
Acetylated α-tubulin; [8]
  fold induction at 1 µM: 0.99 ± 0.06
Total α-tubulin; [9]
  fold induction at 1 µM: 1.02
Total α-tubulin; [10]
  fold induction at 10 µM: 1.01

## CC(C)[C@@H](C)Nc1c(-c2ccc(C#N)cc2F)c(Cl)nc2ncnn12 [Compound 67, (R)-4-(5-chloro-7-((3-methylbutan-2-yl)amino)-[1,2,4]triazolo[1,5-a]pyrimidin-6-yl)-3-fluorobenzonitrile]
Acetylated α-tubulin; QB1293 cells, 4 h incubation, 1 μM compound, relative to vehicle-treated cells, *p<0.05, **p<0.01, listed as 52017 (67)
  AcTub l μM (fold-change in acetylated α-tubulin): 2.79 +/− 1.11 fold-change
Total α-tubulin; [9]
  fold induction at 1 µM: 0.99
Total α-tubulin; [10]
  fold induction at 10 µM: 0.93

## C[C@@H](Nc1c(-c2ccc(C#N)cc2F)c(Cl)nc2ncnn12)C(C)(C)C [Compound 70, (R)-4-(5-Chloro-7-((3,3-dimethylbutan-2-yl)amino)-[1,2,4]triazolo[1,5-a]pyrimidin-6-yl)-3-fluorobenzonitrile]
[1]; [2]
  concentration at 1 h: 158 ng/g
[1]; [3]
  concentration at 1 h: 183 ng/g
[1]; [4]
  Kp at 1 h: 0.9
[1]; [5]
  Kp at 1 h: 1.21
[1]; [6]
  concentration at 1 h: 175 ng/mL
[1]; [7]
  concentration at 1 h: 151 ng/mL
[1]; [11]
  Brain Concentration: 186 ng/g and 206 ng/g
  Plasma Concentration: 133 ng/mL and 146 ng/mL
  Brain/Plasma: 1.40 and 1.41
Acetylated α-tubulin; QB1293 cells, 4 h incubation, 10 μM compound, relative to vehicle-treated cells, *p<0.05, **p<0.01
  AcTub 10 μM (fold-change in acetylated α-tubulin): 7.67 ± 0.70 fold-change
Total α-tubulin; [9]
  fold induction at 1 µM: 0.86
Total α-tubulin; [10]
  fold induction at 10 µM: 0.93

## N#Cc1cc(F)c(-c2c(Cl)nc3ncnn3c2N2CCCCC2)c(F)c1 [Compound 73]
Acetylated α-tubulin; [8]
  fold induction at 1 µM: 1
Total α-tubulin; [9]
  fold induction at 1 µM: 1
Total α-tubulin; [10]
  fold induction at 10 µM: 1.07

## C[C@@H](Nc1c(-c2c(F)cc(C#CCN(C)C)cc2F)c(Cl)nc2ncnn12)C(C)(C)C [TAL-555, (R)-5-chloro-6-(4-(3-(dimethylamino)prop-1-yn-1-yl)-2,6-difluorophenyl)-N-(3,3-dimethylbutan-2-yl)-[1,2,4]triazolo[1,5-a]pyrimidin-7-amine]
Acetylated α-tubulin; [12]
  fold induction at 1 µM: 1.36
Total α-tubulin; QBI293, Table 4, 4 h, 1 μM, read-out: α-Tub l μM (fold-change over control (DMSO)-treated cells)
  fold induction at 1 µM: 1
Total α-tubulin; QBI293, Table 4, 4 h, 10 μM, read-out: α-Tub 10 μM (fold-change over control (DMSO)-treated cells)
  fold induction at 10 µM: 0.84

## C[C@@H](Nc1c(-c2c(F)cc(C#CCCN)cc2F)c(Cl)nc2ncnn12)C(C)(C)C [TAL-580, (R)-6-(4-(4-aminobut-1-yn-1-yl)-2,6-difluorophenyl)-5-chloro-N-(3,3-dimethylbutan-2-yl)-[1,2,4]triazolo[1,5-a]pyrimidin-7-amine hydrochloride]
B/P of Table 4
  Kp: 1.04
Total α-tubulin; [13]
  fold induction at 1 µM: 0.96
Total α-tubulin; [14]
  fold induction at 10 µM: 0.91

## CC(C)[C@@H](C)Nc1c(-c2c(F)cc(C#CCCO)cc2F)c(Cl)nc2ncnn12 [TAL-598, (R)-4-(4-(5-chloro-7-((3-methylbutan-2-yl)amino)-[1,2,4]triazolo[1,5-a]pyrimidin-6-yl)-3,5-difluorophenyl)but-3-yn-1-ol]
B/P of Table 4
  Kp: 0.44
Total α-tubulin; [13]
  fold induction at 1 µM: 0.92

## CC(C)[C@@H](C)Nc1c(-c2c(F)cc(C#CCCCO)cc2F)c(Cl)nc2ncnn12 [TAL-599, (R)-5-(4-(5-chloro-7-((3-methylbutan-2-yl)amino)-[1,2,4]triazolo[1,5-a]pyrimidin-6-yl)-3,5-difluorophenyl)pent-4-yn-1-ol]
Acetylated α-tubulin; [12]
  fold induction at 1 µM: 2.6
Total α-tubulin; [13]
  fold induction at 1 µM: 1

## C[C@@H](Nc1c(-c2c(F)cc(C#CCCO)cc2F)c(Cl)nc2ncnn12)C(C)(C)C [TAL-600, (R)-4-(4-(5-chloro-7-((3,3-dimethylbutan-2-yl)amino)-[1,2,4]triazolo[1,5-a]pyrimidin-6-yl)-3,5-difluorophenyl)but-3-yn-1-ol]
B/P of Table 4
  Kp: 0.47
Total α-tubulin; [13]
  fold induction at 1 µM: 0.98
Total α-tubulin; [14]
  fold induction at 10 µM: 0.98

## C[C@H](Nc1c(-c2c(F)cc(I)cc2F)c(Cl)nc2ncnn12)C(F)(F)F [TAL-640]
Acetylated α-tubulin; [12]
  fold induction at 1 µM: 1.9
Total α-tubulin; [13]
  fold induction at 1 µM: 1.01
Total α-tubulin; [14]
  fold induction at 10 µM: 0.93

## [2H]C([2H])(O)CC#Cc1cc(F)c(-c2c(Cl)nc3ncnn3c2N[C@H](C)C(C)(C)C)c(F)c1 [TAL-651, (R)-4-(4-(5-chloro-7-((3,3-dimethylbutan-2-yl)amino)-[1,2,4]triazolo[1,5-a]pyrimidin-6-yl)-3,5-difluorophenyl)but-3-yn-1,1-d2-1-ol]
B/P of Table 4
  Kp: 0.46
Total α-tubulin; [13]
  fold induction at 1 µM: 1.02
Total α-tubulin; [14]
  fold induction at 10 µM: 1.01

## Cc1nc2nc(Cl)c(-c3c(F)cc(C#CCCO)cc3F)c(N(C)[C@H](C)C(C)C)n2n1 [TAL-665, (R)-4-(4-(5-chloro-2-methyl-7-(methyl(3-methylbutan-2-yl)amino)-[1,2,4]triazolo[1,5-a]pyrimidin-6-yl)-3,5-difluorophenyl)but-3-yn-1-ol]
Acetylated α-tubulin; [12]
  fold induction at 1 µM: 1.05
Total α-tubulin; [13]
  fold induction at 1 µM: 0.91
Total α-tubulin; [14]
  fold induction at 10 µM: 0.96
